Paper PMC8096952, “Similar pharmacokinetics and pharmacodynamics of a new biosimilar and reference insulin aspart in healthy Chinese males” (Scientific Reports, 2021)
Read-outs that look alike come from different tables or passages of the source. Marks after values point to notes of the source that are not given here.

What was measured:
[1] = Pharmacokinetics of insulin aspart (plasma IAsp) during euglycemic clamp study; assay type: in vivo, healthy Chinese males; settings: for t1/2: healthy Chinese males, single 0.2 U/kg s.c., fasted, plasma IAsp by UPLC-MS/MS, arithmetic mean (SD), N = 30; for Tmax: sc
Source text: (§1) There was a phase I, single-site, randomized, single-dose, two-period, crossover, euglycemic clamp study, evaluating the similarity in PK and PD of two IAsp products in healthy subjects (a new IAsp biosimilar RD10046 by HEC Pharm vs. NovoRapid by Novo Nordisk). In this study, subjects were randomly allocated to one of two treatment sequences (Fig. 1), in which they received 0.2 units/kg s.c. doses of two different IAsp products (as listed above) on two occasions.
(§2) Subjects were admitted to the phrase I unit on day-1 of each treatment period. On day 1, subjects received a single dose of the IAsp biosimilar RD10046 or NovoRapid after an overnight fast of at least 10 h, and a euglycemic clamp procedure that lasted up to 10 h postdose was performed. Subjects were discharged when they had had carbohydrates at the end of the euglycemic clamp. An interval of 7–14 days existed between the two doses.
(§3) The euglycemic clamp study was performed after inserting two catheters (an antecubital venous catheter for infusing 20% dextrose and a retrograde venous catheter in the hand heated in a box at 55–65℃ for measuring blood glucose). After collecting the basal blood glucose level [defined as the mean of the glucose measurement of several times (− 60, − 30, − 20, − 10 min) before dosing], the subjects received a 0.2 U/kg dose of NovoRapid or RD10046 by s.c. injection into a lifted abdominal skin-fold. Blood samples were obtained at the bedside for immediate determination of whole blood glucose concentrations and then monitored every 5 min from 0 to 240 min and every 10 min from 240 to 600 min after dosing. During the euglycemic clamp, the GIR was varied as necessary to maintain the blood glucose concentration within approximately ± 10% of the target level (defined as 0.28 mmol/L below the subject’s basal glucose level). The investigator made the GIR adjustment based on glucose measurements and experience. If the GIR fell to zero for at least 30 min, the clamp was discontinued. A 4-mL blood sample was collected at the following points for analysis of C-peptide and IAsp concentration: − 30, 0 (before dosing), 10, 20, 30, 40, 50, 60, 90, 120, 150, 180, 210, 240, 270, 300, 360, 420, 480 and 600 min. The baseline of C-peptide was defined as the mean value of two measurements at − 30 and 0 min.
(§4) Whole blood glucose concentrations were tested with a glucose analyzer (Biosen C_line GP+, Neckar Healthcare. Co. Ltd., Magdeburg, Germany) using an automated glucose oxidase technique. Serum C-peptide levels were analyzed using an ELISA (Cat. No. 80‐CPTHU‐E01.1; ALPCO, Salem, NH), and plasma IAsp concentrations were assessed by means of a validated, ultra-performance liquid chromatography-tandem mass spectrometry (UPLC-MS/MS) method at Covance Laboratories in Shanghai. The ranges of quantification were 20–3000 pmol/L for C-peptide and 0.2–10 ng/mL for IAsp.
The primary endpoint parameters of PK were shown as follows derived from time-profiles of IAsp: (1) maximal concentration of IAsp (Cmax), (2) the AUC of IAsp from 0 to 10 h (AUCIAsp, 0-10h). The time of Cmax (Tmax) and terminal half-life (t1/2) were also recorded. Those parameters mentioned above were calculated by PKsolver (version 2.0)[26]. Log-transformed AUCIAsp,0–10h and Cmax were evaluated with a linear mixed-effects model including subject as a random effect with the period, sequence, and treatment as fixed effects. For each parameter, the difference in the LS means along with the 90% CIs was back-transformed to produce the ratio of geometric means and the CI comparing treatments. The pharmacokinetic similarity was to be concluded if the 90% CIs for both AUCIAsp,0–10h and Cmax were completely contained within the interval of 0.80–1.25.
(§5) Time-related PK/PD parameters were evaluated by a nonparametric approach based on the Hodges-Lehmann method.

healthy Chinese males [2] = experiment: Euglycemic clamp pharmacodynamics (glucose infusion rate); assay type: in vivo; settings: for Tearly,50% (time of half-maximum GIR before GIRmax) / Tlate,50% (time of half-maximum GIR after GIRmax) / Tonset (first time of blood glucose declining to target level, 0.28 mmol/L less than baseline) / tGIRmax (time of maximum glucose infusion rate) / AUCGIR,0–10h (total glucose infusion during the clamp) / GIRmax (maximum glucose infusion rate): healthy Chinese males, single 0.2 U/kg s.c., 10-h euglycemic clamp, N = 29 RD10046, 30 NovoRapid; for AUCGIR,0–10h (total glucose infusion during the clamp) / GIRmax (maximum glucose infusion rate): fasted, LOESS-smoothed GIR
Source text: as §1, §2, §3, §4
GIR profiles were smoothed by a locally weighted regression technique (LOESS, factor 0.10) using SAS software (version 9.4). The primary glucose-lowing effectiveness endpoints were the following parameters derived from the smoothed GIR profiles during the time interval from 0 to 10 h: (1) maximal GIR (GIRmax), (2) AUC of GIR from 0 to 10 h (AUCGIR, 0–10h). The time-related parameters including the time of GIRmax (tGIRmax), the onset of time (Tonset) (defined as the first time when BG declining at least 0.28 mmol/L from baseline), the time for GIR to rise from 0 to half of GIRmax (Tearly50%), and the time for GIR to decline from GIRmax to half of GIRmax (Tlate50%) were also recorded. A similar analysis was performed for GIRmax and AUCGIR, 0–10h.
as §5

C-peptide = experiment: Serum C-peptide during euglycemic clamp (endogenous insulin secretion); assay type: in vivo; settings: healthy Chinese males, single 0.2 U/kg s.c., 10-h euglycemic clamp, ELISA, mean ± SD, N = 30
Experimental: The euglycemic clamp study was performed after inserting two catheters (an antecubital venous catheter for infusing 20% dextrose and a retrograde venous catheter in the hand heated in a box at 55–65℃ for measuring blood glucose). After collecting the basal blood glucose level [defined as the mean of the glucose measurement of several times (− 60, − 30, − 20, − 10 min) before dosing], the subjects received a 0.2 U/kg dose of NovoRapid or RD10046 by s.c. injection into a lifted abdominal skin-fold. Blood samples were obtained at the bedside for immediate determination of whole blood glucose concentrations and then monitored every 5 min from 0 to 240 min and every 10 min from 240 to 600 min after dosing. […]
as §4

healthy Chinese males [3] = experiment: Safety evaluation (treatment-emergent adverse events); assay type: in vivo; settings: all causalities, single 0.2 U/kg s.c., N = 30
Source text: The safety assessments included the vital signs, physical examination, laboratory tests (complete blood cell count, liver and renal function, urinalysis, etc.), 12-lead ECG, injection site reaction, hypoglycemia, and other AEs.

[4] = in vivo; cited from earlier work
Source text: (§6) The maximum observed drug concentration and total drug exposure were higher than those in the previous report, which might ...

healthy Chinese males [5] = settings: previous reports; cited from earlier work
Source text: as §6

insulin aspart [RD10046]
t1/2 [1]: 39.2 (13.1) min
AUCIAsp,0–10h, ratio of LS means (RD10046 divided by NovoRapid) ([1]; in vivo): 1.02^a
AUCIAsp,0–∞, ratio of LS means (RD10046 divided by NovoRapid) ([1]; in vivo): 1.02
Cmax, ratio of LS means (RD10046 divided by NovoRapid) ([1]; in vivo): 1.01^a
Tmax ([1]; in vivo): 50.3 (20.4,60.9) min
AUCGIR,0–10h, ratio of LS means (RD10046 divided by NovoRapid) (healthy Chinese males [2]; 90% CI in next column): 0.97^a
GIRmax, ratio of LS means (RD10046 divided by NovoRapid) (healthy Chinese males [2]; 90% CI in next column): 0.98^a
Tearly,50%, difference between medians (RD10046 - NovoRapid) (healthy Chinese males [2]; Hodges-Lehmann method): 0.13^b min
Tlate,50%, difference between medians (RD10046 - NovoRapid) (healthy Chinese males [2]; Hodges-Lehmann method): 0.39^b min
Tonset, difference between medians (RD10046 - NovoRapid) (healthy Chinese males [2]; Hodges-Lehmann method): 0^b min
tGIRmax, difference between medians (RD10046 - NovoRapid) (healthy Chinese males [2]; Hodges-Lehmann method): 15^b min
Tearly,50% (time of half-maximum GIR before GIRmax) (healthy Chinese males [2]; geometric mean (CV %)): 38 (21) min
Tlate,50% (time of half-maximum GIR after GIRmax) (healthy Chinese males [2]; geometric mean (CV %)): 227 (21) min
Tonset (first time of blood glucose declining to target level, 0.28 mmol/L less than baseline) (healthy Chinese males [2]; geometric mean (CV %)): 16 (28) min
tGIRmax (time of maximum glucose infusion rate) (healthy Chinese males [2]; geometric mean (CV %)): 113 (33) min
AUCGIR,0–10h (total glucose infusion during the clamp) (healthy Chinese males [2]; arithmetic mean): 1558 mg/kg
GIRmax (maximum glucose infusion rate) (healthy Chinese males [2]; arithmetic mean): 7.65 mg/kg/min
AUCGIR,0–10h (total glucose infusion during the clamp) (healthy Chinese males [2]; geometric mean (CV %)): 1493 (31) mg/kg
GIRmax (maximum glucose infusion rate) (healthy Chinese males [2]; geometric mean (CV %)): 7.44 (23) mg/kg/min
C-peptide suppression after injection (reduction from baseline) (C-peptide): 30.2 ± 14.7%
TEAE Electrocardiogram high voltage: number of AEs (number of subjects with AEs) (healthy Chinese males [3]): 1 (1)
TEAE Hyperuricemia: number of AEs (number of subjects with AEs) (healthy Chinese males [3]): 1 (1)
TEAE Induration: number of AEs (number of subjects with AEs) (healthy Chinese males [3]): 1 (1)
TEAE Pain in extremity: number of AEs (number of subjects with AEs) (healthy Chinese males [3]): 1 (1)
TEAE Platelet count increased: number of AEs (number of subjects with AEs) (healthy Chinese males [3]): 1 (1)
TEAE Refraction disorder: number of AEs (number of subjects with AEs) (healthy Chinese males [3]): 1 (1)

insulin aspart [NovoRapid]
t1/2 [1]: 38.0 (9.38) min
Tmax ([1]; in vivo): 50.2 (30.2,75.3) min
Tearly,50% (time of half-maximum GIR before GIRmax) (healthy Chinese males [2]; geometric mean (CV %)): 38 (22) min
Tlate,50% (time of half-maximum GIR after GIRmax) (healthy Chinese males [2]; geometric mean (CV %)): 226 (17) min
Tonset (first time of blood glucose declining to target level, 0.28 mmol/L less than baseline) (healthy Chinese males [2]; geometric mean (CV %)): 15 (23) min
tGIRmax (time of maximum glucose infusion rate) (healthy Chinese males [2]; geometric mean (CV %)): 104 (26) min
AUCGIR,0–10h (total glucose infusion during the clamp) (healthy Chinese males [2]; arithmetic mean): 1594 mg/kg
GIRmax (maximum glucose infusion rate) (healthy Chinese males [2]; arithmetic mean): 7.84 mg/kg/min
AUCGIR,0–10h (total glucose infusion during the clamp) (healthy Chinese males [2]; geometric mean (CV %)): 1542 (27) mg/kg
GIRmax (maximum glucose infusion rate) (healthy Chinese males [2]; geometric mean (CV %)): 7.64 (22) mg/kg/min
C-peptide suppression after injection (reduction from baseline) (C-peptide): 30.7 ± 13.3%
TEAE Blood bilirubin increased: number of AEs (number of subjects with AEs) (healthy Chinese males [3]): 1 (1)
Tmax [4]: 48 to 70 min
GIRmax (healthy Chinese males [5]): 6 to 9 mg/kg/min
total glucose infusion (healthy Chinese males [5]): 1300 to 1500 mg/kg
